In patent US10280159B2 (AbbVie Deutschland GmbH & Co. KG, priority 2015, dated 2019):

Tests used:
Type in all cases: cell-based
[1] = molecular target: T1, human S1PR5 (Homo sapiens, UniProt Q9H228); assay: Intracellular Ca2+ release (FLIPR) agonist potency, S1P5; conditions: recombinant CHO-K1 cells expressing human S1PR5, aequorin, Gq/i5; Calcium 5 FLIPR; read-out: S1P5 EC50 range
T1 construct: host or cells: CHO-K1
Experimental: (§1) Agonistic activity was measured using the method described below.
(§2) Intracellular Ca^2+ Release
(§3) Agonist potency and intrinsic activity was assessed by measurement of intracellular Ca^2+ release. Recombinant CHO-K1 cells (Euroscreen, Brussels, Belgium) expressing human S1PR5, S1PR1, S1PR3 or S1PR4 receptors, aequorin, and GTP binding protein Gq/i5 were cultured using a medium containing nutrient mixture F-12 Ham (Sigma-Aldrich) with 10% FBS, and 100 μg/mL gentamicin and equilibrated at 5% CO2.
(§4) Phospho-fingolimod was used as positive control. Antagonists were pre-incubated for 10 min with cells before addition of the agonist (phospho-fingolimod at EC80). Measurements were performed using a fluorometric imaging plate reader FLIPR®tetra (Molecular Devices). Agonist at the human S1P receptors were characterized by deducing EC50 (potency) values from a nonlinear fit to the measured fluorescence raw data after normalization to the reference agonist (phospho-fingolimod) curve.

[2] = molecular target: T2, human S1PR1 (Homo sapiens, UniProt P21453); assay: Intracellular Ca2+ release (FLIPR) agonist potency, S1P1; conditions: recombinant CHO-K1 cells expressing human S1PR1, aequorin, Gq/i5; Calcium 5 FLIPR; read-out: S1P1 EC50
T2 construct: host or cells: CHO-K1
Experimental: as §1, §2, §3, §4

[3] = molecular target: T3, human S1PR4 (Homo sapiens, UniProt O95977); assay: Intracellular Ca2+ release (FLIPR) agonist potency, S1P4; conditions: recombinant CHO-K1 cells expressing human S1PR4, aequorin, Gq/i5; Calcium 5 FLIPR; read-out: S1P4 EC50
T3 construct: host or cells: CHO-K1
T3 sequence (O95977 1-384): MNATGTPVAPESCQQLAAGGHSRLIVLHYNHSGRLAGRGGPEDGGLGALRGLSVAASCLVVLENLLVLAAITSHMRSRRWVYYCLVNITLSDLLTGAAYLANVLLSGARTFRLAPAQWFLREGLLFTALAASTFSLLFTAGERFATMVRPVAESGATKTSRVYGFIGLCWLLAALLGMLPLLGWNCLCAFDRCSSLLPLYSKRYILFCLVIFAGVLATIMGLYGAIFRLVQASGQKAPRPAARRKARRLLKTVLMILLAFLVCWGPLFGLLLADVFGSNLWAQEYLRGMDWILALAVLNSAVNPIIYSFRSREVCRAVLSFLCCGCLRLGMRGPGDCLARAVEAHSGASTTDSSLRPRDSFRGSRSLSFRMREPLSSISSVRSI
Experimental: as §1, §2, §3, §4

T2 sequence (P21453 whole entry): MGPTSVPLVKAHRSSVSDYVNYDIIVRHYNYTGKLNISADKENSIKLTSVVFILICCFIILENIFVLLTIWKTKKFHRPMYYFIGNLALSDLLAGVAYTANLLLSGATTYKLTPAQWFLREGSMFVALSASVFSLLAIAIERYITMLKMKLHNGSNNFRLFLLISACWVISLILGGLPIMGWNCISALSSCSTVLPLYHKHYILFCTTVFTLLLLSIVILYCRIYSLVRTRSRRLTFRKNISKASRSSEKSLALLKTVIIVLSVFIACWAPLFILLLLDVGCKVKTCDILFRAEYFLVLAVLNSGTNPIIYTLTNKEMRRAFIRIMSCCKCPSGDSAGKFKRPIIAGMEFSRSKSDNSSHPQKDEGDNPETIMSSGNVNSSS
T1 sequence (Q9H228 whole entry): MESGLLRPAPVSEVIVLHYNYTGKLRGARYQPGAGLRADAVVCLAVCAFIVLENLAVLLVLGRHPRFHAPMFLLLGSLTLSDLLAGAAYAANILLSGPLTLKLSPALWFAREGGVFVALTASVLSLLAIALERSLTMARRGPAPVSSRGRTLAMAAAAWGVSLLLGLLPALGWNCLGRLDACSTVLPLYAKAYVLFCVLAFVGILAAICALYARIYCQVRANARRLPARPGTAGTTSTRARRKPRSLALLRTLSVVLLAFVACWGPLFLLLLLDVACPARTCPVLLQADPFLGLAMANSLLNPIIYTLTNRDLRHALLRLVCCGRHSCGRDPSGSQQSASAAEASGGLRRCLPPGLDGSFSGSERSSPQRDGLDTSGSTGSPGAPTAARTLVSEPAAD

Row | SMILES | EC50 [1] | EC50 [2] | EC50 [3]
1 | Cc1ccc(F)c(COc2ccc3c(c2)CCC(OCC(=O)O)C3)c1 (stereo not drawn) [Compound 160, 2-[6-[(2-fluoro-5-methyl-phenyl)methoxy]tetralin-2-yl]oxyacetic acid] | 0.1 to 1 µM | > 1 µM | > 1 µM
2 | O=C(O)COC1CCc2cc(OCc3c(F)cccc3Cl)ccc2C1 (stereo not drawn) [Compound 169, 2-[6-[(2-chloro-6-fluoro-phenyl)methoxy]tetralin-2-yl]oxyacetic acid] | 0.1 to 1 µM | > 1 µM | > 1 µM
3 | CCc1cccc(Cl)c1COc1ccc2c(c1)CCC(OCC(=O)O)C2 (single isomer, unassigned) [Compound 239] | 0.1 to 1 µM | > 1 µM | > 1 µM
4 | O=C(O)COC1CCc2cc(OCc3cccc(Cl)c3)ccc2C1 (stereo not drawn) [Compound 205, 2-[6-[(3-chlorophenyl)methoxy]tetralin-2-yl]oxyacetic acid] | 0.1 to 1 µM | > 1 µM | > 1 µM
5 | O=C(O)C1CN(C2COc3cc(OCc4ccc(Cl)cc4)ccc3C2)C1 (stereo not drawn) [Compound 46, 1-(7-((4-chlorobenzyl)oxy)chroman-3-yl)azetidine-3-carboxylic acid] | 1 to 10 µM | > 1 µM | > 1 µM
6 | O=C(O)C1CN(C2COc3cc(OCc4ccc(C(F)(F)F)cc4F)ccc3C2)C1 (stereo not drawn) [Compound 106, 1-[7-[[2-fluoro-4-(trifluoromethyl)phenyl]methoxy]chroman-3-yl]azetidine-3-carboxylic acid] | 1 to 10 µM | > 1 µM | > 1 µM
7 | O=C(O)COC1CCc2cc(OCc3cccc(F)c3F)ccc2C1 (stereo not drawn) [Compound 204, 2-[6-[(2,3-difluorophenyl)methoxy]tetralin-2-yl]oxyacetic acid] | 1 to 10 µM | > 1 µM | > 1 µM
8 | COc1cccc(F)c1COc1ccc2c(c1)CCC(OCC(=O)O)C2 (stereo not drawn) [Compound 157, 2-[6-[(2-fluoro-6-methoxy-phenyl)methoxy]tetralin-2-yl]oxyacetic acid] | 1 to 10 µM | > 1 µM | > 1 µM
9 | Cc1cccc(COc2ccc3c(c2)OCC(N2CC(C(=O)O)C2)C3)c1F (stereo not drawn) [Compound 105, 1-[7-[(2-fluoro-3-methyl-phenyl)methoxy]chroman-3-yl]azetidine-3-carboxylic acid] | 1 to 10 µM | > 1 µM | > 1 µM

Now from value to molecule:

Row | EC50 [1] | EC50 [2] | EC50 [3] | SMILES
10 | 0.1 to 1 µM | > 1 µM | < 1 µM | Cc1cccc(C#Cc2ccc3c(c2)OCC(N2CC(C(=O)O)C2)C3)c1 (stereo not drawn) [Compound 43, 1-(7-((3-(methyl)phenyl)ethynyl)chroman-3-yl)azetidine-3-carboxylic acid]
11 | < 0.01 µM | > 1 µM | < 1 µM | CCc1cccc(F)c1COc1ccc2c(c1)OC[C@@H](N1CC(C)(C(=O)O)C1)C2 [Compound 139, (S)-1-(7-((2-ethyl-6-fluorobenzyl)oxy)chroman-3-yl)-3-methylazetidine-3-carboxylic acid]
12 | < 0.01 µM | > 1 µM | < 1 µM | CCc1cccc(Cl)c1COc1ccc2c(c1)OCC(NC1(CC(=O)O)CCCC1)C2 (stereo not drawn) [Compound 115, 2-(1-((7-((2-chloro-6-ethylbenzyl)oxy)chroman-3-yl)amino)cyclopentyl) acetic acid]
13 | < 0.01 µM | > 1 µM | < 1 µM | CCc1cccc(F)c1COc1ccc2c(c1)OCC(N(C)CC(=O)O)C2 (stereo not drawn) [Compound 72, 2-((7-((2-ethyl-6-fluorobenzyl)oxy)chroman-3-yl)(methyl)amino)acetic acid]
14 | 0.01 to 0.1 µM | > 1 µM | < 1 µM | CCc1cccc(F)c1COc1ccc2c(c1)OCC(NC13CC(C(=O)O)(C1)C3)C2 (stereo not drawn) [Compound 122, 3-((7-((2-ethyl-6-fluorobenzyl)oxy)chroman-3-yl)amino)bicyclo[1.1.1]pentane-1-carboxylic acid]
15 | < 0.01 µM | > 1 µM | > 1 µM | O=C(O)COC1CCc2cc(OCc3c(Cl)cccc3C3CC3)ccc2C1 (stereo not drawn) [Compound 143, 2-((6-((2-chloro-6-cyclopropylbenzyl)oxy)-1,2,3,4-tetrahydronaphthalen-2-yl)oxy)acetic acid]
